Several values for one entry are separate records, joined by “and”; a condition that tells them apart may be missing. Identical values can stand only once. Like-named read-outs stand apart in the source and are kept apart here. Marks after values point to notes of the source that are not given here.
Assay: Plasma concentration after intravaginal administration of vaginal ring
Format: in vivo, Cynomolgus monkeys
Description: The study was performed in four single dose phases with 28-day sampling period after Phases 1 and 2 (7-day washout period between doses). Vaginal rings were investigated for Pritelivir free base and Pritelivir mesylate salt at two dose levels per formulation. The test items were applied as vaginal ring in Phases 1 and 2 to female monkeys. The study design is below in the Table 3.
Venous blood samples were taken from all animals at the following times in relation to dosing.
• Blood sample site Femoral site • Blood volume 1.0 mL • Anticoagulant For phase 1 samples, Day 1-3 only, blood was sampled into standard HLS vials containing lithium heparin and 20 μL aqueous phosphoric acid (3.5 molar). Thereafter, blood was collected into tubes containing lithium heparin only. Plasma was obtained from all samples by centrifugation. Samples were appropriately labeled and stored deep frozen (−20° C. or below) until analysis • Total no. of blood samples 350 Vaginal Fluid Sampling
After suitable dilution, plasma and vaginal samples were analyzed on UPLC system Waters Acquity UPLC-HSS PFP column with 1.8 μm particles (100×2.1 mm) by gradient elution using 0.1% formic acid and methanol containing 0.1% formic acid. For detection, a time-of-flight mass spectrometer (Xevo GS-2 QTOF, Waters) was used operating in positive ionization mode (MSe analysis). The samples were analyzed for their content of Pritelivir free base.
The study was designed to obtain information on the time-course of unchanged test compound concentrations in plasma and vaginal fluid/tissue, following single intravaginal administration of rings to female Cynomolgus monkeys. Objectives of this study were to determine the safety and tolerance of Pritelivir loaded rings, as well as systemic and local exposure (plasma, vaginal fluid and vaginal and vulval tissue, respectively). Local exposures were compared with in vitro efficacy data of Pritelivir to get an idea on initial pharmacokinetic/pharmacodynamic (PK/PD) parameters for vaginal rings, i.e. to assess the potential ability of a Pritelivir loaded ring to suppress viral replication in the target tissue. Table 9 gives an overview on the EC50 values of Pritelivir on HSV-1 and HSV-2 Data source: Field, H. J., et al., Baseline sensitivity of HSV-1 and HSV-2 clinical isolates and defined acyclovir-resistant strains to the helicase-primase inhibitor pritelivir. Antiviral Res, 2013. 100(2): p. 297-9. EC50=50% effective concentration.

[1] = female, cynomolgus monkey, plasma, other: intravaginal (vaginal ring), 40 mg, ring 40 mg free base, Phase 1 Group 1, group mean, read-out: Plasma concentration of Pritelivir free base, Mean
[2] = female, cynomolgus monkey, plasma, other: intravaginal (vaginal ring), 40 mg, ring 40 mg free base, Phase 1 Group 1, individual animals, read-out: Plasma concentration of Pritelivir free base
[3] = female, cynomolgus monkey, plasma, other: intravaginal (vaginal ring), 240 mg, ring 240 mg free base, Phase 2 Group 1, group mean, read-out: Plasma concentration of Pritelivir free base, Mean
[4] = female, cynomolgus monkey, plasma, other: intravaginal (vaginal ring), 240 mg, ring 240 mg free base, Phase 2 Group 1, individual animals, read-out: Plasma concentration of Pritelivir free base

- All plasma concentrations of Pritelivir (Phases 1 and 2, up to 28 Days, all rings): < 132 nM and < 54 μg/L
- concentration at 0.0417 d (female, cynomolgus monkey, plasma, other: intravaginal (vaginal ring), 40 mg, ring 40 mg free base, Phase 1 Group 1, 0.0417 d, group mean, read-out: Plasma concentration of Pritelivir free base, Mean): 3.43 ng/mL
- concentration at 0.0417 d (female, cynomolgus monkey, plasma, other: intravaginal (vaginal ring), 40 mg, ring 40 mg free base, Phase 1 Group 1, 0.0417 d, individual animals, read-out: Plasma concentration of Pritelivir free base): 2.44 ng/mL
- concentration at 0.167 d [1]: 5.61 ng/mL
- concentration at 0.167 d [2]: 2.38 ng/mL
- concentration at 0.333 d [1]: 6.4 ng/mL
- concentration at 0.333 d [2]: 2.22 ng/mL
- concentration at 4 d [1]: 3.86 ng/mL
- concentration at 4 d [2]: 3.21 ng/mL
- concentration at 7 d [1]: 3.66 ng/mL
- concentration at 7 d [2]: 3.55 ng/mL
- concentration at 10 d [1]: 3.36 ng/mL
- concentration at 10 d [2]: 3.92 ng/mL
- concentration at 14 d [1]: 3.31 ng/mL
- concentration at 14 d [2]: 2.81 ng/mL
- concentration at 17 d [1]: 3.2 ng/mL
- concentration at 17 d [2]: 2.64 ng/mL
- concentration at 21 d [1]: 2.91 ng/mL
- concentration at 21 d [2]: 3 ng/mL
- concentration at 24 d [1]: 2.99 ng/mL
- concentration at 24 d [2]: 3.21 ng/mL
- concentration at 28 d [1]: 2.79 ng/mL
- concentration at 28 d [2]: 2.6 ng/mL
- concentration at 0.0833 d (female, cynomolgus monkey, plasma, other: intravaginal (vaginal ring), 240 mg, ring 240 mg free base, Phase 2 Group 1, 0.0833 d, group mean, read-out: Plasma concentration of Pritelivir free base, Mean): 3.68 ng/mL
- concentration at 0.0833 d (female, cynomolgus monkey, plasma, other: intravaginal (vaginal ring), 240 mg, ring 240 mg free base, Phase 2 Group 1, 0.0833 d, individual animals, read-out: Plasma concentration of Pritelivir free base): 4.41 ng/mL
- concentration at 0.167 d [3]: 4.58 ng/mL
- concentration at 0.333 d [3]: 5.87 ng/mL
- concentration at 3 d (female, cynomolgus monkey, plasma, other: intravaginal (vaginal ring), 240 mg, ring 240 mg free base, Phase 2 Group 1, 3 d, individual animals, read-out: Plasma concentration of Pritelivir free base): 26.8 ng/mL
- concentration at 4 d [4]: 26 ng/mL
- concentration at 7 d [4]: 16.4 ng/mL
- concentration at 10 d [4]: 9.46 ng/mL
- concentration at 14 d [4]: 9.48 ng/mL
- concentration at 17 d [4]: 10.8 ng/mL
- concentration at 21 d [4]: 7.78 ng/mL
- concentration at 24 d [4]: 9.71 ng/mL
- concentration at 28 d [4]: 12.7 ng/mL
- Plasma concentration of Pritelivir free base (ring 40 mg free base, Phase 1 Group 1, 0 d (pre-dose), individual animals): 2.70 ^a μg/L
- Plasma concentration of Pritelivir free base (ring 40 mg free base, Phase 1 Group 1, 0.0417 d, individual animals): 4.73 ^ μg/L and 3.11 ^a μg/L
- Plasma concentration of Pritelivir free base, Mean (ring 40 mg free base, Phase 1 Group 1, 0.0833 d, group mean): 5.28 ^ μg/L
- Plasma concentration of Pritelivir free base (ring 40 mg free base, Phase 1 Group 1, 0.0833 d, individual animals): 6.03 ^ μg/L and 4.53 ^ μg/L
SMILES: Cc1nc(N(C)C(=O)Cc2ccc(-c3ccccn3)cc2)sc1S(N)(=O)=O [Pritelivir free base]

From patent US11213516B2, “Intravaginally applicable devices comprising antiviral compounds” (AICURIS ANTI-INFECTIVE CURES GMBH, priority 2017, dated 2022)
